For 12 compounds, EC50 results are on record in US8912206B2, “Pyrimidine ether derivatives and methods of use thereof” (Merck Sharp & Dohme Corp., priority 2009, dated 2014).

The target of this test is T1, human GPR119 (Homo sapiens, UniProt Q8TDV5).
T1 construct: expressed in transfected cells; host or cells: HEK293
T1 sequence (Q8TDV5 1-335): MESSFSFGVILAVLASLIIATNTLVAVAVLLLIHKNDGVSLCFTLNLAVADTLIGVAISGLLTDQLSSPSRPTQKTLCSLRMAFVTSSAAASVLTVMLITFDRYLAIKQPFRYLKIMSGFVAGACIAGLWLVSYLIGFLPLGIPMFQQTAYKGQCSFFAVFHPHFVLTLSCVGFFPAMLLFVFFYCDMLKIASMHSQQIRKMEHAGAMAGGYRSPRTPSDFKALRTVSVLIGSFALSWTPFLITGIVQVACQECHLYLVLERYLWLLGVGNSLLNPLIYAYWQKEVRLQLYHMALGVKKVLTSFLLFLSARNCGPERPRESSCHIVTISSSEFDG
Kind of test: cAMP assay (LANCE cAMP kit), activation of GPR119. Format: cell-based. To be noted: HEK293 cells expressing human GPR119, 30 minutes incubation. The protocol: The ability of illustrative compounds of the invention to activate GPR119 and stimulate increases in cAMP levels was determined using the LANCE™ cAMP kit (Perkin Elmer). HEK293 cells expressing human GPR119 were maintained in culture flasks at 37° C./5% CO2 in DMEM containing 10% fetal bovine serum, 100 U/ml Pen/Strep, and 0.5 mg/ml geneticin. The media was changed to Optimem and cells were incubated for about 15 hours at 37° C./5% CO2. The Optimem was then aspirated and the cells were removed from the flasks using room temperature Hank's balanced saline solution (HBSS). The cells were pelleted using centrifugation (1300 rpm, 7 minutes, room temperature), then resuspended in stimulation buffer (HBSS, 0.1% BSA, 5 mM HEPES, 15 μM RO-20) at 2.5×10^6 cells/mL. Alexa Fluor 647-anti cAMP antibody (1:100) was then added to the cell suspension and incubated for 30 minutes. A representative Pyrimidine Ether Derivative (6 μl at 2× concentration) in stimulation buffer containing 2% DMSO were then added to white 384 well Matrix plates. Cell suspension mix (6 μl) was added to each well and incubated with the Pyrimidine Ether Derivative for 30 minutes. A cAMP standard curve was also created in each assay according to the kit protocol. Standard concentrations of cAMP in stimulation buffer (6 μl) were added to white 384 well plates. Subsequently, 6 μl of 1:100 anti-cAMP antibody was added to each well. Following the 30 minute incubation period, 12 μl of detection mix (included in kit) was added to all wells and incubated for 2-3 hours at room temperature. Fluorescence was detected on the plates using an Envision instrument. The level of cAMP in each well is determined by extrapolation from the cAMP standard curve.
On the technique in general: Changes in cAMP serve as a functional read-out for many G protein-coupled receptors.
A word on the EC50: it is the concentration giving half of the maximal effect. Read a high EC50 as lower potency in that assay. For the compound `CC(C)S(=O)(=O)N1CCC(Oc2ncnc(OC3C4COCC3CN(C(=O)OC3(C)CC3)C4)c2F)CC1` (stereo not drawn) [Compound 5], the EC50 was < 100 nM.
`CC1(OC(=O)N2CC3COCC(C2)C3Oc2ncnc(OC3CCN(S(=O)(=O)C4CCCC4)CC3)c2F)CC1` (stereo not drawn) [Compound 7] showed a 50% effective concentration (EC50) of 100 to 200 nM.
As for `CCCS(=O)(=O)N1CCC(Oc2ncnc(OC3C4COCC3CN(C(=O)OC3(C)CC3)C4)c2F)CC1` (stereo not drawn) [Compound 11], the EC50 is < 100 nM.
`CC(C)(C)OC(=O)N1CCC(Oc2ncnc(OC3C4COCC3CN(C(=O)OC3(C)CC3)C4)c2F)CC1` (stereo not drawn) [Compound 1] registered a half-maximal effective concentration (EC50) of 500 to 1000 nM.
The value for `CC1(OC(=O)N2CC3COCC(C2)C3Oc2ncnc(OC3CCN(S(=O)(=O)C(F)(F)F)CC3)c2F)CC1` (stereo not drawn) [Compound 6] was 500 to 1000 nM.
The value for `CC1(OC(=O)N2CC3COCC(C2)C3Oc2ncnc(OC3CCN(S(=O)(=O)CCC(F)(F)F)CC3)c2F)CC1` (stereo not drawn) [Compound 3] was < 100 nM.
The value for `CC1(OC(=O)N2CC3COCC(C2)C3Oc2ncnc(OC3CCN(S(=O)(=O)C4CC4)CC3)c2F)CC1` (stereo not drawn) [Compound 4] was 100 to 200 nM; that for `CC1(OC(=O)N2CC3COCC(C2)C3Oc2ncnc(OC3CCN(S(C)(=O)=O)CC3)c2F)CC1` (stereo not drawn) [Compound 2] was 100 to 200 nM.
Consider `CCS(=O)(=O)N1CCC(Oc2ncnc(OC3C4COCC3CN(C(=O)OC3(C)CC3)C4)c2F)CC1` (stereo not drawn) [Compound 12], for which the EC50 is < 100 nM.
The compound `COCCS(=O)(=O)N1CCC(Oc2ncnc(OC3C4COCC3CN(C(=O)OC3(C)CC3)C4)c2F)CC1` (stereo not drawn) [Compound 8] returned an EC50 of 100 to 200 nM.
Consider `CS(=O)(=O)N1CCC(Oc2ncnc(OC3C4COCC3CN(c3ncc(Cl)cn3)C4)c2F)CC1` (stereo not drawn) [Compound 10], for which the EC50 was < 100 nM.
Then `CC(C)C(=O)N1CCC(Oc2ncnc(OC3C4COCC3CN(C(=O)OC3(C)CC3)C4)c2F)CC1` (stereo not drawn) [Compound 9], with 500 to 1000 nM.
